Results taken from ChEMBL document CHEMBL3507680, “University of Dundee, Gates Library screen for HepG2 cell viability”.

experiment: Human HepG2 cell viability assay in 384 well format; type: toxicity, cell-based; parameters: dose 125 nL, time 70.5 hour; concentration not given beside the values; details: HepG2 cells, read-out: Inhibition

Row | SMILES | cytotoxicity at 70.5 h
1 | O=C(NCCc1ccccc1Cl)NCC1(O)CCSC1 (configuration not stated) | 3.74%
2 | Cc1cccc(C)c1OCCNC(=O)CN1CCN(C)CC1C (configuration not stated) | 16.7%
3 | CCc1ccccc1NC(=O)N1CCn2cnc(COC)c2C1 | -7.61%
4 | Cc1ccc(F)cc1NC(=O)NCC(C)N1CCOCC1 (configuration not stated) | 9.4%
5 | CSc1cccc(CN(C)C(=O)Cn2ncc(N(C)C)cc2=O)c1 | -3.4%
6 | CN(C)CCN1CCN(Cc2nccs2)Cc2cccnc21 | 2.78%
7 | COC(=O)COc1cc(NCc2c(C)noc2C)c(Cl)cc1C | -5.04%
8 | CC(C)CC(C)N(C)C(=O)CCn1cccn1 (configuration not stated) | -6.33%
9 | NCC1[C@H]2CN(Cc3cccc(Cl)c3)C[C@@H]12 (some centres not stated) | -5.77%
10 | CN(C)C(=O)CO[C@@H]1CC[C@H]2[C@H]1OCCN2c1ncc(F)cn1 | -6.35%
11 | Cc1ccc2c(c1)CN(C(=O)c1ccncc1)C(CN(C)C)CO2 (configuration not stated) | -0.528%
12 | NC(=O)C1CCN(C(=O)CCn2ccc3ccc(Br)cc32)CC1 | -33.3%
13 | O=C(NCCCNC(=O)C1CCC1)NCCn1cccc1 | -5.85%
14 | COCc1nc(CNC2CCCc3c2cnn3C(C)(C)C)cs1 (configuration not stated) | -6.43%
15 | O=C(N1CCOCC1)N1CCN(CC(O)c2ccc(F)cc2)CC1 (configuration not stated) | 3.33%
16 | CCn1ncc(Cl)c1CN(C)C(=O)CCn1ncc(Br)c1C | -18%
17 | CC(C)NC(=O)N1CCC2(CCCO2)C1 (configuration not stated) | 14.2%
18 | CCN(CC1CCOC1)C(=O)c1ccccc1N1CCOCC1 (configuration not stated) | 18.7%
19 | CN(C)CC1CN(c2ncnc3ccsc23)CCO1 (configuration not stated) | 8.47%

Row | SMILES | cytotoxicity at 70.5 h
20 | Cc1nn(C)c(Oc2ccc(Cl)cc2)c1CN1CC[C@H](CO)[C@@H](O)C1 | -12.9%
21 | CC(C)c1nc(-c2cc(C(=O)NCCN(C)C)c3ccccn23)cs1 | -1.61%
22 | CC(C)c1ncncc1C(=O)N1CCN(Cc2cscn2)CC1 | 22.6%
23 | CC(C)OCCCNC(=O)CC1(Cn2cnnn2)CCCCC1 | -8.88%
24 | CC(C)N1CCC(C(=O)N(C)C(C)c2ccon2)CC1 (configuration not stated) | -0.598%
25 | Cc1ccc2c(c1)[C@@H](CC(=O)N1CCOCC1)CCO2 | 0.54%
26 | CCNc1ncc(C(=O)NCCCc2ccncc2)cn1 | -3.04%
27 | CNC(=O)CN1CCC(NC2CSCCc3ccccc32)CC1 (configuration not stated) | 0.136%
28 | CCN(CC)CCCNC(=O)c1nn(CC)cc1Cl | 2.52%
29 | O=C1CCCN1CC1CCCCN1C(=O)Nc1cccnc1 (configuration not stated) | -1.1%
30 | Cc1cc(C)n(CC(=O)N2CCC(NS(=O)(=O)c3ccccc3)CC2)n1 | -5.45%
31 | COC(=O)C1CCN(C(=O)NCC(C)Cc2cccs2)CC1 (configuration not stated) | -14.5%
32 | O=C1CN(c2ccc(CNC(=O)NCCO)cc2)CCN1 | -5.73%
33 | CCNC(=O)N(C)C(c1ccccc1)c1ccccn1 (configuration not stated) | -4.29%
34 | O=C(NC1CCN(c2ncccn2)CC1)c1cc2c([nH]c1=O)CCC2 | -10.7%
35 | CCc1cc(C(=O)N2CCC(c3cc4ncccc4cn3)CC2)no1 | 18.3%
36 | CN(CCCN1CCCC1)[C@@H]1c2ccccc2C2(CCNCC2)[C@H]1O | 14.4%
37 | O=C(CC1CCCC1)NCCS(=O)(=O)N1CCN(c2ccccc2)CC1 | -3.36%
38 | Cc1cc(C)c(CNC(=O)NCC(O)c2ccc(Cl)cc2)c(=O)[nH]1 (configuration not stated) | -4.37%

Row | SMILES | cytotoxicity at 70.5 h
39 | CCCS(=O)(=O)NC(=O)c1ccc(CC)o1 | 2.47%
40 | C1CC(CN2C[C@H]3CC[C@@H]2CN(Cc2nnc(C4CC4)o2)C3)C1 | -16.7%
41 | Cc1cccc(CN2CCc3onc(CO)c3C2)n1 | 5.71%
42 | Cc1ccc(C(CNC(=O)NCc2cc[nH]n2)N2CCOCC2)o1 (configuration not stated) | -14.3%
43 | Cc1ccc(CN2CCC3(CCCN(Cc4ccc(F)c(F)c4)C3)C2)o1 (configuration not stated) | 0.359%
44 | O=C(O)c1cccc(S(=O)(=O)N2CCOc3ccccc32)c1 | -12.8%
45 | COc1ccc(-c2ncc(-c3nccn3CCN(C)C)cn2)cc1 | -10.5%
46 | CC(=O)N1CCN(C(=O)C(C)n2cncn2)CC1 (configuration not stated) | 5.31%
47 | O=C1CC(c2ccccc2F)c2c(n(C3CCCC3)[nH]c2=O)N1 (configuration not stated) | -7.2%
48 | CC(C(=O)NCc1ccc(-n2cncn2)nc1)n1ccnc1 (configuration not stated) | -18%
49 | COc1ccc(N(Cc2ccco2)C(=O)C2CCCO2)cc1F (configuration not stated) | -2.54%
50 | CC(C)(C)OC(=O)N[C@@H]1C[C@@H](O)CN(C(=O)c2cccc(F)c2)C[C@H]1O | -3.14%
51 | O=C(COC1CCCC1)N1CCCN(c2ncccn2)CC1 | -2.52%
52 | CC(C)CS(=O)(=O)N1C[C@H]2C[C@H](C(=O)N3CCOCC3)[C@@H](C1)O2 | 13.9%
53 | Cc1noc(C)c1S(=O)(=O)NC(=O)COc1cccc(C(C)C)c1 | -2.21%
54 | CC(C)c1[nH]c2ncccc2c1CN1CCOCC1 | 4.28%
55 | c1ccc2c(c1)N(CC1CCOC1)CC21CCN(c2cnccn2)CC1 (configuration not stated) | -0.723%
56 | COCc1nc2nc(O)c3c(n2n1)NC(=O)CC3c1ccccc1Cl (configuration not stated) | 4.14%
57 | CCC(NS(C)(=O)=O)c1ccccc1C (configuration not stated) | 10.1%
